Test results published in US10584115B2, “Substituted pyridine and pyrazine BMI-1 inhibitors” (PTC Therapeutics, Inc., priority 2013, dated 2020).

System: Bmi-1 protein
Experiment: Sandwich ELISA Assay (Bmi-1 protein level in HT-1080 cells after compound treatment)
Format: cell-based
Details: Table 1, Bmi-1 sandwich ELISA, read-out: ELISA EC50 value for Bmi-1 protein
How it was run: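 HT-1080 cells exposed to compounds for 40–48 h at 37 °C (0.5% DMSO final), then lysed. Bmi-1 in lysates measured by sandwich ELISA (mouse monoclonal capture, rabbit anti-Bmi-1 detection, HRP anti-rabbit, TMB), read at OD450 with OD570 reference against a recombinant Bmi-1 standard curve (0–8000 pg/mL).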

| EC50 [nM] | Compound |
| --- | --- |
| 10 to 100 | Cc1nn2ccccc2c1-c1cncc(Nc2ccc(Cl)cc2)n1 [compound 567, N-(4-chlorophenyl)-6-(2-methylpyrazolo[1,5-a]pyridin-3-yl)pyrazin-2-amine] |
| 100 to 3000 | Cc1nn2ccccc2c1-c1cncc(Nc2ccc(F)cc2)n1 [compound 568, N-(4-fluorophenyl)-6-(2-methylpyrazolo[1,5-a]pyridin-3-yl)pyrazin-2-amine] |
| 10 to 100 | COc1cccc(Nc2cncc(-c3c(C)nn4ccccc34)n2)c1 [compound 569, N-(3-methoxyphenyl)-6-(2-methylpyrazolo[1,5-a]pyridin-3-yl)pyrazin-2-amine] |
| 100 to 3000 | Cc1nn2ccccc2c1-c1cncc(Nc2cccc(Cl)c2)n1 [compound 570, N-(3-chlorophenyl)-6-(2-methylpyrazolo[1,5-a]pyridin-3-yl)pyrazin-2-amine] |
| 10 to 100 | Cc1nn2ccccc2c1-c1cncc(Nc2ccc(C#N)cc2)n1 [compound 571, 4-{[6-(2-methylpyrazolo[1,5-a]pyridin-3-yl)pyrazin-2-yl]amino}benzonitrile] |
| 1 to 10 | COC(=O)c1ccc(Nc2cncc(-c3c(C)nn4ccccc34)n2)cc1 [compound 572, methyl 4-{[6-(2-methylpyrazolo[1,5-a]pyridin-3-yl)pyrazin-2-yl]amino}benzoate] |
| 100 to 3000 | COc1ccc(Nc2cncc(-n3c(C)nc4cc(F)c(F)cc43)n2)cc1 [compound 573, 6-(5,6-difluoro-2-methyl-1H-benzimidazol-1-yl)-N-(4-methoxyphenyl)pyrazin-2-amine] |
| 100 to 3000 | Cc1ccc(Nc2cncc(-n3c(C)nc4cc(F)c(F)cc43)n2)cc1 [compound 574, 6-(5,6-difluoro-2-methyl-1H-benzimidazol-1-yl)-N-(4-methylphenyl)pyrazin-2-amine] |
| 10 to 100 | Cc1nc2cc(F)c(F)cc2n1-c1cncc(Nc2ccc(Cl)cc2)n1 [compound 575, N-(4-chlorophenyl)-6-(5,6-difluoro-2-methyl-1H-benzimidazol-1-yl)pyrazin-2-amine] |
| 100 to 3000 | COc1cc(C)ccc1Nc1cncc(-n2c(C)nc3ccccc32)n1 [compound 576, N-(2-methoxy-4-methylphenyl)-6-(2-methyl-1H-benzimidazol-1-yl)pyrazin-2-amine] |
| 100 to 3000 | COc1ccc(Nc2cc(-n3c(C)ccc3C)cc(-n3c(C)nc4ccccc43)n2)cc1 [compound 577, 4-(2,5-dimethyl-1H-pyrrol-1-yl)-N-(4-methoxyphenyl)-6-(2-methyl-1H-benzimidazol-1-yl)pyridin-2-amine] |
| 100 to 3000 | COc1cccc(Nc2cncc(-n3c(C)nc4cc(F)c(F)cc43)n2)c1 [compound 578, 6-(5,6-difluoro-2-methyl-1H-benzimidazol-1-yl)-N-(3-methoxyphenyl)pyrazin-2-amine] |
| 100 to 3000 | Cc1nc2cc(F)c(F)cc2n1-c1cncc(Nc2ccc3c(c2)OC(F)(F)O3)n1 [compound 579, N-(2,2-difluoro-1,3-benzodioxol-5-yl)-6-(5,6-difluoro-2-methyl-1H-benzimidazol-1-yl)pyrazin-2-amine] |
| 10 to 100 | COc1ccc(Nc2cc(N)cc(-n3c(C)nc4ccccc43)n2)cc1 [compound 580, N^2-(4-methoxyphenyl)-6-(2-methyl-1H-benzimidazol-1-yl)pyridine-2,4-diamine] |
| 1 to 10 | Cc1ccc(Nc2cncc(-n3c(C)nc4ccccc43)n2)c(O)c1 [compound 582, 5-methyl-2-{[6-(2-methyl-1H-benzimidazol-1-yl)pyrazin-2-yl]amino}phenol] |
| 1 to 10 | COc1ccc(Nc2cc(C#N)cc(-n3c(C)nc4cc(F)c(F)cc43)n2)cc1 [compound 583, 2-(5,6-difluoro-2-methyl-1H-benzimidazol-1-yl)-6-[(4-methoxyphenyl)amino]pyridine-4-carbonitrile] |
| 10 to 100 | Cc1nc2ccc(F)cc2n1-c1cc(C#N)cc(Nc2ccc(OC(F)(F)F)cc2)n1 [compound 588, 2-(6-fluoro-2-methyl-1H-benzimidazol-1-yl)-6-{[4-(trifluoromethoxy)phenyl]amino}pyridine-4-carbonitrile] |
| 10 to 100 | COc1ccc(Nc2cc(C#N)cc(-n3c(C)nc4ccc(F)cc43)n2)cc1 [compound 589, 2-(6-fluoro-2-methyl-1H-benzimidazol-1-yl)-6-[(4-methoxyphenyl)amino]pyridine-4-carbonitrile] |
| < 1 | COc1ccc(Nc2cncc(-c3c(C)nc4ccc(F)cn34)n2)cc1 [compound 592, 6-(6-fluoro-2-methylimidazo[1,2-a]pyridin-3-yl)-N-(4-methoxyphenyl)pyrazin-2-amine] |
| 10 to 100 | Cc1ccc(Nc2cc(C#N)cc(-n3c(C)nc4cc(F)c(F)cc43)n2)cc1 [compound 599, 2-(5,6-difluoro-2-methyl-1H-benzimidazol-1-yl)-6-[(4-methylphenyl)amino]pyridine-4-carbonitrile] |
| 10 to 100 | Cc1nc2cc(F)c(F)cc2n1-c1cc(C#N)cc(Nc2ccc(Cl)cc2)n1 [compound 600, 2-[(4-chlorophenyl)amino]-6-(5,6-difluoro-2-methyl-1H-benzimidazol-1-yl)pyridine-4-carbonitrile] |

| EC50 [nM] | Compound |
| --- | --- |
| 10 to 100 | Cc1nc2cc(F)c(F)cc2n1-c1cccc(Nc2ccc(C(F)(F)F)cc2)n1 [compound 601, 6-(5,6-difluoro-2-methyl-1H-benzimidazol-1-yl)-N-[4-(trifluoromethyl)phenyl]pyridin-2-amine] |
| 10 to 100 | Cc1nc2cc(F)c(F)cc2n1-c1cccc(Nc2ccc(OC(F)F)cc2)n1 [compound 602, N-[4-(difluoromethoxy)phenyl]-6-(5,6-difluoro-2-methyl-1H-benzimidazol-1-yl)pyridin-2-amine] |
| 100 to 3000 | Cc1nc2cc(F)c(F)cc2n1-c1cccc(Nc2ccc(OC(F)(F)F)cc2)n1 [compound 603, 6-(5,6-difluoro-2-methyl-1H-benzimidazol-1-yl)-N-[4-(trifluoromethoxy)phenyl]pyridin-2-amine] |
| 100 to 3000 | Cc1nc2ccccc2n1-c1cc(N)cc(Nc2ccc(OC(F)(F)F)cc2)n1 [compound 604] |
| 100 to 3000 | Cc1nc2ccccc2n1-c1cc(N)cc(Nc2ccc(F)cc2)n1 [compound 605, N^2-(4-fluorophenyl)-6-(2-methyl-1H-benzimidazol-1-yl)pyridine-2,4-diamine] |
| 1 to 10 | Cc1ccc(Nc2cc(C#N)cc(-n3c(C)nc4ccc(F)cc43)n2)cc1 [compound 611, 2-(6-fluoro-2-methyl-1H-benzimidazol-1-yl)-6-[(4-methylphenyl)amino]pyridine-4-carbonitrile] |
| 10 to 100 | Cc1nc2ccc(F)cc2n1-c1cc(C#N)cc(Nc2ccc(Cl)cc2)n1 [compound 612, 2-[(4-chlorophenyl)amino]-6-(6-fluoro-2-methyl-1H-benzimidazol-1-yl)pyridine-4-carbonitrile] |
| 10 to 100 | COc1ccc(Nc2cccc(-n3c(C)nc4cc(F)c(F)cc43)n2)cc1 [compound 613, 6-(5,6-difluoro-2-methyl-1H-benzimidazol-1-yl)-N-(4-methoxyphenyl)pyridin-2-amine] |
| 10 to 100 | Cc1ccc(Nc2cccc(-n3c(C)nc4cc(F)c(F)cc43)n2)cc1 [compound 614, 6-(5,6-difluoro-2-methyl-1H-benzimidazol-1-yl)-N-(4-methylphenyl)pyridin-2-amine] |
| 100 to 3000 | Cc1nc2cc(F)c(F)cc2n1-c1cccc(Nc2ccc(Cl)cc2)n1 [compound 615, N-(4-chlorophenyl)-6-(5,6-difluoro-2-methyl-1H-benzimidazol-1-yl)pyridin-2-amine] |
| 1 to 10 | Cc1nc2ccccc2n1-c1cncc(Nc2ccc(Br)cc2)n1 [compound 616, N-(4-bromophenyl)-6-(2-methyl-1H-benzimidazol-1-yl)pyrazin-2-amine] |
| 10 to 100 | Cc1ccc(Nc2cc(-n3c(C)ccc3C)cc(-n3c(C)nc4ccccc43)n2)cc1 [compound 617, 4-(2,5-dimethyl-1H-pyrrol-1-yl)-6-(2-methyl-1H-benzimidazol-1-yl)-N-(4-methylphenyl)pyridin-2-amine] |
| 100 to 3000 | Cc1ccc(C)n1-c1cc(Nc2ccc(Cl)cc2)nc(-n2c(C)nc3ccccc32)c1 [compound 618, N-(4-chlorophenyl)-4-(2,5-dimethyl-1H-pyrrol-1-yl)-6-(2-methyl-1H-benzimidazol-1-yl)pyridin-2-amine] |
| 1 to 10 | Cc1nc2ccccc2n1-c1cncc(Nc2ccc(I)cc2)n1 [compound 619, N-(4-iodophenyl)-6-(2-methyl-1H-benzimidazol-1-yl)pyrazin-2-amine] |
| 100 to 3000 | CCc1nc2ccc(F)cc2n1-c1cncc(Nc2ccccc2)n1 [compound 620, 6-(2-ethyl-6-fluoro-1H-benzimidazol-1-yl)-N-phenylpyrazin-2-amine] |
| < 1 | CCc1nn2ccccc2c1-c1cncc(Nc2ccc(OC)cc2)n1 [compound 627, 6-(2-ethylpyrazolo[1,5-a]pyridin-3-yl)-N-(4-methoxyphenyl)pyrazin-2-amine] |
| < 1 | CCc1nn2ccccc2c1-c1cncc(Nc2ccc(C)cc2)n1 [compound 628, 6-(2-ethylpyrazolo[1,5-a]pyridin-3-yl)-N-(4-methylphenyl)pyrazin-2-amine] |
| 1 to 10 | CCc1nn2ccccc2c1-c1cncc(Nc2ccc(Cl)cc2)n1 [compound 629, N-(4-chlorophenyl)-6-(2-ethylpyrazolo[1,5-a]pyridin-3-yl)pyrazin-2-amine] |
| 100 to 3000 | CCc1nn2ccccc2c1-c1cncc(Nc2ccc(F)cc2)n1 [compound 630, 6-(2-ethylpyrazolo[1,5-a]pyridin-3-yl)-N-(4-fluorophenyl)pyrazin-2-amine] |
| 100 to 3000 | CCc1nn2ccccc2c1-c1cncc(Nc2ccccc2)n1 [compound 631, 6-(2-ethylpyrazolo[1,5-a]pyridin-3-yl)-N-phenylpyrazin-2-amine] |
| 1 to 10 | Cc1ccc(Nc2cc(N)cc(-n3c(C)nc4ccccc43)n2)cc1 [compound 632, 6-(2-methyl-1H-benzimidazol-1-yl)-N^2-(4-methylphenyl)pyridine-2,4-diamine] |
